{
  "source": "patent US4415546A",
  "about": "“Biologically active analogs of ACTH and radioimmuno assay therefor” (priority 1981, dated 1983)",
  "key": {"[1]": {"target": "ACTH antiserum 46-1", "experiment": "saturation curves of ACTH antiserum with labeled ACTH", "type": "binding, rabbit", "procedure": "Varying amounts of labeled ACTH were incubated with the antiserum at a final dilution of 1:58,000 in a total volume of 200 μl for 2 hr. at room temperature. Blanks containing no antiserum were included for each point.\n25 μl of this washed protein A immunoprecipitant was added and the incubation was continued at 4° for 18 hr. One ml of assay buffer at 4° was added to a series of tubes and the tubes were then centrifuged at 2500 rpm for 15 min in a Beckman model TJ-6 refrigerated centrifuge.\nThe tubes containing [^3 H]-ACTH were processed similarly, drained, wiped and then 0.5 ml 0.1 N NaOH was added. The tubes were stirred on a Vortex mixer for 20 sec. and incubated at 37° for 30 min. An aliquot (0.4 ml) of the NaOH extract was mixed with phase combininhg scintillant (PCS, Amersham) and counted in a Packard PRIAS scintillation counter."}, "[2]": {"target": "ACTH antiserum", "experiment": "standard radioimmunoassay, displacement of [125I]-Tyr23,Phe2,Nle4-ACTH (1-38) from ACTH antiserum", "type": "binding, rabbit", "procedure": "Standard radioimmunoassays were performed as follows: Unlabeled ACTH or other peptides in a volume of 50 μl were mixed with 50 μl antiserum and 50 μl Protein A immunoprecipitant washed as described above. All components were prepared in assay buffer and incubated at 4° for 24 hr. […] One ml of assay buffer was added and the tubes were processed as described above for counting in the Beckman 4000 counter."}, "[3]": {"test_system": "isolated rat adrenocortical cells", "experiment": "isolated rat adrenocortical cell assay (corticosterone production)", "type": "cell-based"}, "[4]": {"test_system": "steroidogenesis", "conditions": "literature values; cited from earlier work"}, "[5]": {"conditions": "isolated rat adrenocortical cells, result in words"}},
  "note": "Read-outs that look alike come from different tables or passages of the source. No end group written: not given here.",
  "data": [
    {"substance": "H-Ser^1 -Tyr-Ser-Met-Glu^5 -His-Phe-Arg-Trp-Gly^10 -Lys-Pro-Val-Gly-Lys^15 -Lys-Arg-Arg-Pro-Val^20 -Lys-Val-Tyr-Pro-Asn^25 -Gly-Ala-Glu-Asp-Glu^30 -Ser-Ala-Glu-Ala-Phe^35 -Pro-Leu-Glu-Phe^39 -Oh [ACTH]", "values": [
      {"measurement": "Kd", "setting": "[1]; from saturation curves, antiserum dilution 1:58,000, read-out: apparent dissociation constant for the interaction with antiserum 46-1", "value": "0.096 ± 0.016", "unit": "nM"},
      {"measurement": "IC50", "setting": "[2]; preincubation of the antiserum with the competing peptide, read-out: value for 50% displacement of radioligand", "value": "0.0203 ± 0.0033", "unit": "nM"},
      {"measurement": "equivalents of unlabeled hormone for 50% displacement of the radioligand", "setting": "[2]; under the preincubation conditions", "value": "less than one equivalent"},
      {"measurement": "equivalents of unlabeled hormone for 50% displacement of the radioligand", "setting": "[2]; without preincubation", "value": "one equivalent"}
    ]},
    {"substance": "[^125 I]-Tyr^23,Phe^2,Nle^4 -ACTH (1-38)", "values": [
      {"measurement": "EC50", "setting": "[3]; corticosterone production, 37° for 1 hr, non-linear least squares analysis, read-out: concentration required for half maximal stimulation of steroidogenesis", "value": "0.0407 ± 0.0069", "unit": "nM"},
      {"measurement": "steroidogenic potency compared with ACTH", "setting": "[3]; [5]", "value": "indistinguishable from that of ACTH"},
      {"measurement": "Kd", "setting": "[1]; saturation binding, no preincubation, read-out: concentration needed for half-maximal binding of the radioligand", "value": "0.096 ± 0.016", "unit": "nM"}
    ]},
    {"substance": "monoiodo Tyr^23,Phe^2,Nle^4 -ACTH (1-38)", "values": [
      {"measurement": "steroidogenic potency compared with ACTH", "setting": "[3]; [5]", "value": "equipotent with ACTH"},
      {"measurement": "displacement curve compared with ACTH", "setting": "[2]; result in words", "value": "identical"}
    ]},
    {"substance": "Phe^2, Nle^4 -ACTH-(1-38)", "values": [
      {"measurement": "maximal stimulation of corticosterone production compared with human ACTH", "setting": "[3]; [5]", "value": "same maximal degree as human ACTH"},
      {"measurement": "steroidogenic potency compared with ACTH", "setting": "[3]; [5]", "value": "as potent as ACTH"}
    ]},
    {"substance": "[^125 I]ACTH: 125I labelled natural ACTH prepared by a lactoperoxidase process (McIlhinney and Schulster) (SYSMEHFRWGKPVGKKRRPVKVYPNGAEDESAEAFPLEF; also: 125I label (lactoperoxidase); UniProt P01189 138-176, looked up)", "values": [
      {"measurement": "steroidogenic activity / potency relative to natural ACTH", "setting": "[4]", "value": 50, "unit": "%"}
    ]}
  ]
}
